Blank lines part the entries; values can stand above or below the compound they belong to.
Assays:
[1] = Cmax in fasted Sprague-Dawley rat at 1 mg/kg, iv measured for 24 hrs; assay type: ADME, organism-based; design: dose 1 mg/kg, time 24 hrs, route iv; conditions: in vivo
[2] = Cmax in fasted Sprague-Dawley rat at 5 mg/kg, IG measured for 24 hrs; assay type: ADME, organism-based; design: dose 5 mg/kg, time 24 hrs, route ig; conditions: in vivo, po
[3] = Cmax in fasted ICR mouse at 2 mg/kg, iv measured for 24 hrs; assay type: ADME, organism-based; design: time 24 hrs, dose 2 mg/kg, route iv; conditions: in vivo
[4] = AUC (0 to t) in fasted ICR mouse at 2 mg/kg, iv measured for 24 hrs; assay type: ADME, organism-based; design: dose 2 mg/kg, time 24 hrs, route iv; conditions: in vivo
[5] = Elimination half life in fasted ICR mouse at 2 mg/kg, iv measured for 24 hrs; assay type: ADME, organism-based; conditions: in vivo, read-out: beta t1/2 (converted)
[6] = Volume of distribution at steady state in fasted ICR mouse at 2 mg/kg, iv measured for 24 hrs; assay type: ADME, organism-based; conditions: in vivo, read-out: Vdss
[7] = Clearance in fasted ICR mouse at 2 mg/kg, iv measured for 24 hrs; assay type: ADME, organism-based; conditions: in vivo
[8] = Cmax in fasted ICR mouse at 5 mg/kg, IG measured for 24 hrs; assay type: ADME, organism-based; design: dose 5 mg/kg, time 24 hrs, route ig; conditions: in vivo, po
[9] = AUC (0 to t) in fasted ICR mouse at 5 mg/kg, IG measured for 24 hrs; assay type: ADME, organism-based; design: dose 5 mg/kg, time 24 hrs, route ig; conditions: in vivo, po
[10] = Elimination half life in fasted ICR mouse at 5 mg/kg, IG measured for 24 hrs; assay type: ADME, organism-based; conditions: in vivo, po, read-out: beta t1/2 (converted)
[11] = Bioavailability in fasted ICR mouse at 5 mg/kg, IG measured for 24 hrs; assay type: ADME, organism-based; conditions: in vivo, po
[12] = AUC (0 to t) in fasted Sprague-Dawley rat at 1 mg/kg, iv measured for 24 hrs; assay type: ADME, organism-based; design: dose 1 mg/kg, time 24 hrs, route iv; conditions: in vivo
[13] = Elimination half life in fasted Sprague-Dawley rat at 1 mg/kg, iv measured for 24 hrs; assay type: ADME, organism-based; conditions: in vivo, read-out: beta t1/2 (converted)
[14] = Volume of distribution at steady state in fasted Sprague-Dawley rat at 1 mg/kg, iv measured for 24 hrs; assay type: ADME, organism-based; conditions: in vivo, read-out: Vdss
[15] = Clearance in fasted Sprague-Dawley rat at 1 mg/kg, iv measured for 24 hrs; assay type: ADME, organism-based; conditions: in vivo
[16] = AUC (0 to t) in fasted Sprague-Dawley rat at 5 mg/kg, IG measured for 24 hrs; assay type: ADME, organism-based; design: dose 5 mg/kg, time 24 hrs, route ig; conditions: in vivo, po
[17] = Elimination half life in fasted Sprague-Dawley rat at 5 mg/kg, IG measured for 24 hrs; assay type: ADME, organism-based; conditions: in vivo, po, read-out: beta t1/2 (converted)
[18] = Bioavailability in fasted Sprague-Dawley rat at 5 mg/kg, IG measured for 24 hrs; assay type: ADME, organism-based; conditions: in vivo, po
[19] = Metabolic stability in human liver microsomes assessed as half life at 1 uM incubated for 60 mins in presence of NADPH by LC-MS/MS analysis; assay type: ADME, Microsome
[20] = Metabolic stability in human liver microsomes assessed as intrinsic clearance at 1 uM incubated for 60 mins in presence of NADPH by LC-MS/MS analysis; assay type: ADME, Microsome; conditions: read-out: CLH
[21] = Metabolic stability in mouse liver microsomes assessed as half life at 1 uM incubated for 60 mins in presence of NADPH by LC-MS/MS analysis; assay type: ADME, Microsome
[22] = Metabolic stability in mouse liver microsomes assessed as intrinsic clearance at 1 uM incubated for 60 mins in presence of NADPH by LC-MS/MS analysis; assay type: ADME, Microsome; conditions: read-out: CLH
[23] = Metabolic stability in rat liver microsomes assessed as half life at 1 uM incubated for 60 mins in presence of NADPH by LC-MS/MS analysis; assay type: ADME, Microsome
[24] = Metabolic stability in rat liver microsomes assessed as intrinsic clearance at 1 uM incubated for 60 mins in presence of NADPH by LC-MS/MS analysis; assay type: ADME, Microsome; conditions: read-out: CLH
[25] = Metabolic stability in dog liver microsomes assessed as half life at 1 uM incubated for 60 mins in presence of NADPH by LC-MS/MS analysis; assay type: ADME, Canis lupus familiaris, Microsome
[26] = Metabolic stability in dog liver microsomes assessed as intrinsic clearance at 1 uM incubated for 60 mins in presence of NADPH by LC-MS/MS analysis; assay type: ADME, Canis lupus familiaris, Microsome; conditions: read-out: CLH
[27] = Drug concentration in Sprague-Dawley rat plasma at 5 mg/kg, ip measured after 15 mins by LC-MS/MS analysis; assay type: ADME, organism-based
[28] = Drug concentration in Sprague-Dawley rat plasma at 5 mg/kg, ip measured after 60 mins by LC-MS/MS analysis; assay type: ADME, organism-based
[29] = Drug concentration in Sprague-Dawley rat plasma at 5 mg/kg, ip measured after 120 mins by LC-MS/MS analysis; assay type: ADME, organism-based
[30] = Drug concentration in Sprague-Dawley rat brain at 5 mg/kg, ip measured after 15 mins by LC-MS/MS analysis; assay type: ADME, organism-based; conditions: read-out: Ct
[31] = Drug concentration in Sprague-Dawley rat brain at 5 mg/kg, ip measured after 60 mins by LC-MS/MS analysis; assay type: ADME, organism-based; conditions: read-out: Ct
[32] = Drug concentration in Sprague-Dawley rat brain at 5 mg/kg, ip measured after 120 mins by LC-MS/MS analysis; assay type: ADME, organism-based; conditions: read-out: Ct
[33] = Ratio of drug concentration in Sprague-Dawley brain to plasma at 5 mg/kg, ip measured after 15 mins by LC-MS/MS analysis; assay type: ADME, organism-based; conditions: rat, read-out: BPR
[34] = Ratio of drug concentration in Sprague-Dawley brain to plasma at 5 mg/kg, ip measured after 60 mins by LC-MS/MS analysis; assay type: ADME, organism-based; conditions: rat, read-out: BPR
[35] = Ratio of drug concentration in Sprague-Dawley brain to plasma at 5 mg/kg, ip measured after 120 mins by LC-MS/MS analysis; assay type: ADME, organism-based; conditions: rat, read-out: BPR
[36] = target: T1, Amine oxidase [flavin-containing] A (Homo sapiens, UniProt P21397); experiment: Inhibition of recombinant human MAO-A expressed in Sf9 cells using […] as substrate preincubated for 15 mins followed by substrate addition and measured after 60 mins by luciferin based luminescence analysis
T1 sequence (P21397 whole entry): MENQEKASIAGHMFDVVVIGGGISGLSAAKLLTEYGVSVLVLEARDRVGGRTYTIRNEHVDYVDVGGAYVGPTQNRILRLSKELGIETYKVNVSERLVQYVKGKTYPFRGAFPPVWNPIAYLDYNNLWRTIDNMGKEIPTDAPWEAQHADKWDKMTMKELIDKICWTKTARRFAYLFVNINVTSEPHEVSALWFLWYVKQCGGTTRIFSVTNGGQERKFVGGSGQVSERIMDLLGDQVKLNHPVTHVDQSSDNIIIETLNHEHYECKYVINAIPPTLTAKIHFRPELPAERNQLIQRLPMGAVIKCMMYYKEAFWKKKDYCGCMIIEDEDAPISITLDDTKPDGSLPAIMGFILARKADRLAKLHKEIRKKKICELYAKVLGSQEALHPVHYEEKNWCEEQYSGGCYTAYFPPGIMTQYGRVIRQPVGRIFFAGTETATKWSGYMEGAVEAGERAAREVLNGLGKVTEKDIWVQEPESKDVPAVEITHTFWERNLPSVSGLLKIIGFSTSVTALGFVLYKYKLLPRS

[37] = target: T2, Amine oxidase [flavin-containing] B (Homo sapiens, UniProt P27338); experiment: Inhibition of recombinant human MAO-B expressed in Sf9 cells using p-tyramine as substrate preincubated for 15 mins followed by substrate addition and measured after 60 mins by luciferin based luminescence analysis
T2 sequence (P27338 whole entry): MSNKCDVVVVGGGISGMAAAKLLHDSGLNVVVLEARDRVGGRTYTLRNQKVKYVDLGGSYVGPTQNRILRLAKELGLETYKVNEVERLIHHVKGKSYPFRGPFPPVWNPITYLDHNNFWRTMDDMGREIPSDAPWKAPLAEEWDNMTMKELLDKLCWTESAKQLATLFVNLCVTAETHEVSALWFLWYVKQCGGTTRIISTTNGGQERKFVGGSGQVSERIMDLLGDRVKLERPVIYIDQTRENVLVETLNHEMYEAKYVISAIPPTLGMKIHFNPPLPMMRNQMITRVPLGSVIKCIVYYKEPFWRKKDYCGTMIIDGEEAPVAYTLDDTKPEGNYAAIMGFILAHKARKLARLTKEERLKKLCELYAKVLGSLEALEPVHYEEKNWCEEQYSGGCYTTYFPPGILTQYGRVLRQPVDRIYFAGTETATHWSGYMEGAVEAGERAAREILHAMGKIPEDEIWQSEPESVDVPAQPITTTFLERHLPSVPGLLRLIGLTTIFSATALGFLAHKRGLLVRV

Structure (SMILES): NC(=O)[C@@H]1C[C@H](F)CN1Cc1ccc(OCc2cccc(F)c2)cc1
Cmax ([1]; 24 h): 69.1 ng/mL
Cmax [2]: 690 ng/mL
Cmax [3]: 613 ng/mL
AUC(0-t) at 24 h [4]: 561 ng·h/mL
half-life [5]: 33 min
Vd [6]: 2.6 L/kg
clearance [7]: 63.3 mL/min/kg
Cmax [8]: 833 ng/mL
AUC(0-t) at 24 h [9]: 1080 ng·h/mL
half-life [10]: 46.8 min
bioavailability [11]: 77.4%

Structure (SMILES): C[C@H](NCc1ccc(OCc2cccc(F)c2)cc1)C(N)=O [SAFINAMIDE]
Cmax ([1]; Sprague-Dawley, read-out: Cmax): 244 ng/mL
AUC(0-t) at 24 h [12]: 233 ng·h/mL
half-life [13]: 70.8 min
Vd [14]: 5.26 L/kg
clearance [15]: 70.6 mL/min/kg
Cmax [2]: 148 ng/mL
AUC(0-t) at 24 h [16]: 536 ng·h/mL
half-life [17]: 157 min
bioavailability [18]: 48.5%
Cmax [3]: 429 ng/mL
AUC(0-t) at 24 h [4]: 930 ng·h/mL
half-life [5]: 95.4 min
Vd [6]: 4.53 L/kg
clearance [7]: 34.7 mL/min/kg
Cmax [8]: 755 ng/mL
AUC(0-t) at 24 h [9]: 3050 ng·h/mL
half-life [10]: 167 min
bioavailability [11]: 129%
half-life at 1 µM [19]: 536 min
CLint scaled at 1 µM [20]: 2.8 mL/min/kg
half-life at 1 µM [21]: 65.8 min
CLint scaled at 1 µM [22]: 43.2 mL/min/kg
half-life at 1 µM [23]: 19.9 min
CLint scaled at 1 µM [24]: 38.3 mL/min/kg
half-life at 1 µM [25]: 65.8 min
CLint scaled at 1 µM [26]: 43.2 mL/min/kg
concentration at 0.25 h [27]: 371 ng/mL
concentration at 1 h [28]: 353 ng/mL
concentration at 2 h [29]: 144 ng/mL
concentration at 0.25 h [30]: 3960 ng/g
concentration at 1 h [31]: 5100 ng/g
concentration at 2 h [32]: 2170 ng/g
Kp at 0.25 h [33]: 10.7
Kp at 1 h [34]: 14.4
Kp at 2 h [35]: 15.1

Structure (SMILES): COc1ccc(-c2cc3cc(CN[C@@H](C)C(N)=O)ccc3o2)cc1
IC50 [36]: 2.78 µM
IC50 [37]: > 10000 nM

Structure (SMILES): COc1cccc(-c2cc3cc(CN[C@@H](C)C(N)=O)ccc3o2)c1
IC50 [36]: 5.91 µM
IC50 [37]: 4550 nM

Structure (SMILES): NC(=O)[C@@H]1CCN1Cc1ccc2oc(-c3cccc(F)c3)cc2c1
IC50 [36]: 4.91 µM
IC50 [37]: 86 nM
Cmax ([1]; Sprague-Dawley, read-out: Cmax): 204 ng/mL
AUC(0-t) at 24 h [12]: 188 ng·h/mL
half-life [13]: 47 min
Vd [14]: 4.96 L/kg
clearance [15]: 87.9 mL/min/kg
Cmax [2]: 185 ng/mL
AUC(0-t) at 24 h [16]: 527 ng·h/mL
half-life [17]: 63.6 min
bioavailability [18]: 56.3%

Now from value to compound:

IC50 [36]: > 10 µM
IC50 [37]: 833 nM
Structure (SMILES): NC(=O)[C@@H]1CC(F)(F)CN1Cc1ccc2oc(-c3ccc(F)cc3)cc2c1

IC50 [36]: 6.21 µM
IC50 [37]: 9490 nM
Structure (SMILES): COc1ccccc1-c1cc2cc(CN[C@@H](C)C(N)=O)ccc2o1

IC50 [36]: 4.94 µM
IC50 [37]: 2250 nM
Structure (SMILES): C[C@H](NCc1ccc2oc(-c3cccc(F)c3)cc2c1)C(N)=O

Reference: ChEMBL document CHEMBL5346941, “Design, synthesis and evaluation of novel monoamine oxidase B (MAO-B) inhibitors with improved pharmacokinetic properties for Parkinson's disease” (Eur J Med Chem, 2023)
